Laboratory results reported in PMC8151276, “An Integrated Approach toward NanoBRET Tracers for Analysis of GPCR Ligand Engagement” (Molecules, 2021).

Target: T1, CCR1 (Homo sapiens, UniProt P32246)
T1 construct: purchased Promega (in-house HiBiT-GPCR construct library, NanoBRET)
T1 sequence (P32246 1-355): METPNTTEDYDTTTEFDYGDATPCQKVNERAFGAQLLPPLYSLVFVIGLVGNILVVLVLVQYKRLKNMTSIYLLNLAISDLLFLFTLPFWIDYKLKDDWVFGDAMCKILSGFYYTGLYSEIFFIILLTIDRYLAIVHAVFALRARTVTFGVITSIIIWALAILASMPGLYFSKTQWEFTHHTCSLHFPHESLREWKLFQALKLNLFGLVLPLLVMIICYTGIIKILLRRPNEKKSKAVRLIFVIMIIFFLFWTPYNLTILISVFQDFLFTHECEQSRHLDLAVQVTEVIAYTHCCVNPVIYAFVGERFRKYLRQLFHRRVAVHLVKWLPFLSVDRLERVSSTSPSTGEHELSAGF
Assay: NanoBRET screen HiBiT-CCR1 in HEK293
Format: binding
Protocol: Each tracer candidate was screened across the entire library of HiBiT-GPCR constructs using NanoBRET as the detection modality. As depicted in Figure 4A, the specificity of interactions was evaluated through decrease in BRET due to competitive displacement of a bound tracer by excess parental compound. Each tracer was analyzed for binding to each HiBiT-GPCR fusion in the absence and in the presence of competing parental compound. Briefly, HEK293 cells were transfected with HiBiT-GPCR constructs diluted into promoterless DNA to reduce expression and maximize translocation to the cell surface. Each tracer candidate was then screened at concentrations of 1 μM and 0.1 μM across cells expressing these fusions. Cells were treated for 1.5 h with tracer either alone or in the presence of 20 μM competing parental compound (i.e., control). BRET was measured upon addition of purified LgBiT and subsequent complementation with HiBiT genetically fused to a GPCR. The specificity of interactions was assessed through a decrease in BRET signal due to competitive displacement of the bound tracer. To further gauge the robustness of these interactions, the fold response over the control (i.e., BRETtracer/BRETcontrol) was calculated. We chose a 1.5-fold response, which translates to ≥7-fold signal over noise as the minimal threshold required to score an interaction as positive. […]. Below we highlight the screening results obtained for our exemplary fluorescent tracers based on Clozapine, Amitriptyline and AZD1283.
HiBiT-GPCR DNA constructs were diluted in 10 mM Tris pH 8 to a final concentration of 0.01 μg/μL, arrayed in 96-well plates and stored at −20 °C. For transfection, HEK293 cells were suspended in Opti-MEM (without phenol red) supplemented with 2% fetal bovine serum (Seradigm) and 100 units/mL penicillin–streptomycin (Gibco) at a final concentration of 220,000 cells/mL and dispensed into white 96-well plates at 90 μL/well. Subsequent transfections and screens were carried using an Agilent Bravo Automated Liquid Handling Platform. First, the 96-well HiBiT DNA arrays were diluted 25-fold in Opti-MEM (without serum or phenol red) to a final concentration of 0.0004 μg/μL and 20 μL of the diluted DNAs were transferred into new 96-well plates. Next, promoterless carrier DNA (1 μg/μL) was diluted 25-fold (0.04 μg/μL) and then dispensed into the diluted arrays at 20 μL/well. Following brief mixing, Viafect transfection reagent (Promega) diluted 16-fold into Opti-MEM was dispensed into the plates at 40 μL/well. After mixing by pipetting, plates were incubated for 10 min on the pipetting station deck. The DNA-transfection reagent complexes were then added to plates containing cells. To facilitate the screen, 10 μL of DNA-transfection reagent complexes were added in duplicates to the top 4 and bottom 4 rows, resulting in two identical 48-well arrays per plate. Plates with transfected cells were incubated for 18–20 h at 37 °C/5% CO2. A screen of each tracer across the entire library using two different concentrations requires duplicate plates of transfected cells. Depending on the number of tracers being screened, transfections can be scaled up using the same ratios. The next day, for each tracer, four 20× screening solutions in tracer dilution buffer (Promega) were prepared: two duplicates at final concentration of 20 μM and two duplicates at a final concentration of 2 μM. A competing unmodified compound was added to one of each duplicate at a final concentration of 400 μM. The four resulting solutions were diluted 4-fold in Opti-MEM without serum or phenol red to generate 5× solutions (5 µM and 0.5 µM tracer +/− 100 μM competing compound). To screen the library, a BioTek MultiFlo FX liquid dispenser was used to dispense 22.5 µL of tracer solution to the top 4 rows and 22.5 µL tracer + competing compound solution to the 4 bottom rows. Plates were briefly mixed on an orbital shaker and incubated for 1.5 h at room temperature. […]

| SMILES | NanoBRET Fold Response (CCR1, tracer 0.1μM) | NanoBRET Fold Response (CCR1, tracer 1μM) | other results |
| --- | --- | --- | --- |
| O=C(CCc1ccc2n1[B-](F)(F)[N+]1=C(c3ccc[nH]3)C=CC1=C2)NCc1ccc(C(=O)NCCOCCC(=O)N[C@@H]2CC[C@@]3(O)[C@H]4Cc5ccc(O)c6c5[C@@]3(CCN4CC3CC3)[C@H]2O6)cc1 [Naltrexone-3-NB590] | 1.03 | 0.66 | – |
| CCCn1c(=O)c2[nH]c(-c3ccc(OCC(=O)NCCNC(=O)CCOCCNC(=O)c4ccc(CNC(=O)CCc5ccc6n5[B-](F)(F)[N+]5=C(c7ccc[nH]7)C=CC5=C6)cc4)cc3)nc2n(CCC)c1=O [XAC-3-NB590] | 0.83 | 1.09 | – |
| CC(C)N(CC[C@H](c1ccccc1)c1cc(CCNC(=O)c2ccc(CNC(=O)CCc3ccc4n3[B-](F)(F)[N+]3=C(c5ccc[nH]5)C=CC3=C4)cc2)ccc1O)C(C)C [Tolterodine-BZ-NB590] | 1.09 | 0.96 | – |
| COc1ccc2[nH]c(-c3ccc(CNC(=O)CCOCCOCCOCCOCCNC(=O)CCc4ccc5n4[B-](F)(F)[N+]4=C(c6ccc[nH]6)C=CC4=C5)cc3)c(CCNC(C)=O)c2n1 [AzomelatoninICO9-2-NB590] | – | – | NanoBRET Fold Response (0.1μM tracer): 1.12; NanoBRET Fold Response (1μM tracer): 1.21 |
| CN1CCN(C2=Nc3cc(Cl)ccc3N(CC(=O)NCCOCCOCCOCCOCCNC(=O)CCc3ccc4n3[B-](F)(F)[N+]3=C(c5ccc[nH]5)C=CC3=C4)c3ccccc32)CC1 [Clozapine-c-2-NB590] | – | – | NanoBRET Fold Response (CCR1, 0.1μM tracer): 1.05; NanoBRET Fold Response (CCR1, 1μM tracer): 0.98 |
| COc1ccccc1N1CCN(CCCCN2C(=O)c3ccc(CNC(=O)CCOCCNC(=O)c4ccc(CNC(=O)CCc5ccc6n5[B-](F)(F)[N+]5=C(c7ccc[nH]7)C=CC5=C6)cc4)cc3C2=O)CC1 [NAN-190-3-NB590] | 1.04 | 0.89 | – |
| Cc1nc2n(c(=O)c1CCN1CCC(c3noc4cc(F)ccc34)CC1)CCCC2OC(=O)NCCOCCOCCOCCOCCNC(=O)CCc1ccc2n1[B-](F)(F)[N+]1=C(c3ccc[nH]3)C=CC1=C2 (centres unmarked) [Risperidone-2-NB590] | 1.00 | 0.99 | – |
| O=C(CCOCCOCCOCCOCCNC(=O)CCc1ccc2n1[B-](F)(F)[N+]1=C(c3ccc[nH]3)C=CC1=C2)NCCCN1CCN(C2=Nc3ccccc3Oc3ccc(Cl)cc32)CC1 [Loxapine-a-2-NB590] | 1.00 | 0.99 | – |
| COc1ccccc1N1CCN(CCCCN2C(=O)c3ccc(CNC(=O)CCOCCOCCOCCOCCNC(=O)CCc4ccc5n4[B-](F)(F)[N+]4=C(c6ccc[nH]6)C=CC4=C5)cc3C2=O)CC1 [NAN-190-2-NB590] | 1.01 | 1.04 | – |
| CC(C)N(CC[C@H](c1ccccc1)c1cc(CCNC(=O)CCOCCOCCOCCOCCNC(=O)CCc2ccc3n2[B-](F)(F)[N+]2=C(c4ccc[nH]4)C=CC2=C3)ccc1O)C(C)C [Tolterodine-2-NB590] | 0.97 | 0.94 | – |
| N#CN=C(NCCCOc1cccc(CN2CCCCC2)c1)NCCNC(=O)CCOCCOCCOCCOCCNC(=O)CCc1ccc2n1[B-](F)(F)[N+]1=C(c3ccc[nH]3)C=CC1=C2 [Aminopotentidine-2-NB590] | 0.95 | 1.03 | – |
| CCOC(=O)c1cc(C#N)c(N2CCC(C(=O)NS(=O)(=O)Cc3ccccc3/C=C/C(=O)NCCNC(=O)CCc3ccc4n3[B-](F)(F)[N+]3=C(c5ccc[nH]5)C=CC3=C4)CC2)nc1C [AZD1283-1-NB590] | – | – | NanoBRET Fold Response (CCR1, 0.1μM): 1.05; NanoBRET Fold Response (CCR1, 1μM): 1.03 |
| CN(C)CCC=C1c2ccccc2CCc2ccc(C(=O)NCCNC(=O)CCOCCOCCOCCOCCNC(=O)CCc3ccc4n3[B-](F)(F)[N+]3=C(c5ccc[nH]5)C=CC3=C4)cc21 [Amitriptyline-b-2-NB590] | – | – | NanoBRET Fold Response (tracer at 0.1μM, listed as amitriptyline-b-2-NB590): 0.84; NanoBRET Fold Response (tracer at 1μM): 0.97 |
| CN(C)CCC=C1c2ccccc2CCc2ccc(C(=O)NCCNC(=O)CCOCCOCCOCCOCCNC(=O)CCc3ccc4n3[B-](F)(F)[N+]3=C(c5ccc[nH]5)C=CC3=C4)cc21 [Amitriptyline-a-2-NB590] | – | – | NanoBRET Fold Response (tracer at 0.1μM): 0.99; NanoBRET Fold Response (tracer at 1μM): 1.07 |
| O=C(CCc1ccc2n1[B-](F)(F)[N+]1=C(c3ccc[nH]3)C=CC1=C2)NCCOCCOCCNC(=O)OCCOCCN1CCN(C2=Nc3ccccc3Sc3ccccc32)CC1 [Quetiapine-a-2-NB590] | 0.99 | 0.99 | – |
| Cc1cc2c(s1)Nc1ccccc1N=C2N1CCN(CCCNC(=O)CCOCCOCCOCCOCCNC(=O)CCc2ccc3n2[B-](F)(F)[N+]2=C(c4ccc[nH]4)C=CC2=C3)CC1 [Olanzapine-a-2-NB590] | 1.02 | 0.98 | – |
| CN1CCN(C2=Nc3cc(Cl)ccc3Nc3ccc(CNC(=O)CCOCCOCCOCCOCCNC(=O)CCc4ccc5n4[B-](F)(F)[N+]4=C(c6ccc[nH]6)C=CC4=C5)cc32)CC1 [Clozapine-b-2-NB590] | – | – | NanoBRET Fold Response (CCR1, 0.1μM tracer): 1.04; NanoBRET Fold Response (CCR1, 1μM tracer): 0.98 |
| COc1ccc2c(n1)c(CCNC(C)=O)cn2CCNC(=O)CCc1ccc2n1[B-](F)(F)[N+]1=C(c3ccc[nH]3)C=CC1=C2 [Azamelatonin-1-NB590] | – | – | NanoBRET Fold Response (0.1μM tracer): 0.90; NanoBRET Fold Response (1μM tracer): 1.04 |
| CN(CCC=C1c2ccccc2CCc2ccccc21)C(=O)CCOCCOCCOCCOCCNC(=O)CCc1ccc2n1[B-](F)(F)[N+]1=C(c3ccc[nH]3)C=CC1=C2 [Amitriptyline-e-2-NB590] | – | – | NanoBRET Fold Response (tracer at 1μM): 0.99 |
| O=C(CCc1ccc2n1[B-](F)(F)[N+]1=C(c3ccc[nH]3)C=CC1=C2)NCc1ccc(C(=O)NCCOCCOCCNCC(O)COc2cccc3ccccc23)cc1 (centres unmarked) [Propranolol-3-NB590] | – | – | NanoBRET Fold Response (CCR1, 0.1μM): 1.03; NanoBRET Fold Response (CCR1, 1μM): 0.97 |
| O=C(CCOCCOCCOCCOCCNC(=O)CCc1ccc2n1[B-](F)(F)[N+]1=C(c3ccc[nH]3)C=CC1=C2)NCCCN1CCN(C2=Nc3cc(Cl)ccc3Nc3ccccc32)CC1 [Clozapine-a-2-NB590] | – | – | NanoBRET Fold Response (CCR1, 0.1μM tracer): 1.03; NanoBRET Fold Response (CCR1, 1μM tracer): 0.94 |
